Columns and labels:
[1] = system: MCF-7/adr adriamycin-resistant breast cancer cell line; test: Cell proliferation (CellTiter 96 AQueous MTS/PMS), MCF-7/adr; assay type: cell-based; conditions: Homo sapiens, NCI/ADR-RES; MCF-7/adr; 72 hours of incubation; concentration that induces the death of 50% of the cells; read-out: CI50 for various cell lines (nM) MCF-7/adr
Protocol: (§1) The effects of the compounds of the invention on the proliferation of cancer cells were studied on various human cancer cell lines of various tissue origins (MCF-7: breast cancer, MCF-7/adr adriamycin-resistant breast cancer, ARH-77: myeloma, ARH-77/Dox: doxorubicin (other name for adriamycin)-resistant myeloma, HL-60: acute promyelocytic leukaemia, HL-60/R10: doxorubicin-resistant acute promyelocytic leukaemia). The cancer cells used for this study were incubated at 37° C. in the presence of one of the compounds of the invention added to the culture medium at various concentrations.
(§2) The cancer cell lines originate from the ATCC (American Type Culture Collection) in the case of MCF-7, ARH-77 and HL-60, from Pharmacell (Paris, France) for HL-60/R10, from Oncodesign (Dijon, France) for ARH-77/Dox and from the Pitié Salpetrière Hospital for MCF-7/adr. They were cultivated in a RPMI 1640 medium containing 2 mM L-glutamine and supplemented with 10% foetal calf serum. All the cell lines were maintained in culture at 37° C. in a moist atmosphere containing 5% CO2. Cell proliferation was evaluated using the “CellTiter 96® AQueous” reagent (Promega, Wis., USA) while adhering to the manufacturer's instructions. The cells were seeded in 96-well culture plates in a proportion of from 5,000 to 10,000 cells per well in 200 μl of culture medium. After 24 hours of preincubation at 37° C., the compounds of the invention dissolved in dimethyl sulphoxide (DMSO) were added individually to each of the wells in a proportion of 2 μl per well. After 72 hours of incubation at 37° C. in a moist atmosphere containing 5% CO2, 40 μL of a MTS/PMS ([3-(4,5-dimethylthiazol-2-yl)-5-(3-carboxymethoxyphenyl)-2-(4-sulphophenyl)-2H-tetrazolium phenazine methosulphate) solution were added to each well.

[2] = system: MCF-7 breast cancer cell line; test: Cell proliferation (CellTiter 96 AQueous MTS/PMS), MCF-7; assay type: cell-based; conditions: Homo sapiens, MCF7; MCF-7; 72 hours of incubation; concentration that induces the death of 50% of the cells; read-out: CI50 for various cell lines (nM) MCF-7
Protocol: as §1, §2

Structure (SMILES)	IC50 [1] [nM]	IC50 [2] [nM]
COc1ccc(N(C(=O)CCl)C(C(=O)NC2CCCCC2)c2cccs2)cc1 (stereo not drawn) [Compound 109, 2-[(2-Chloroacetyl)-(4-methoxyphenyl)amino]-N-cyclohexyl-2-thiophen-2-yl-acetamide]	1	100
C#CC(=O)N(CC(C)C)C(C(=O)NC1CCCCC1)c1cccs1 (stereo not drawn) [Compound 12, Propynoic Acid (cyclohexylcarbamoylthiophen-2-yl-methyl)isobutylamide]	30	–
COC(=O)c1cccc(NC(=O)C(c2cccs2)N(C(=O)CCl)c2cccc(C(F)(F)F)c2)c1 (stereo not drawn) [Compound 153]	1.3	79
C#CC(=O)N(CC1CC1)C(C(=O)NCc1ccccc1)c1cccs1 (stereo not drawn) [Compound 18, Propynoic Acid (benzylcarbamoylthiophen-2-yl-methyl)cyclopropylmethylamide]	30	–
C#CC(=O)N(c1ccc(C(C)C)cc1)C(C(=O)NC1CCCCC1)c1cccs1 (stereo not drawn) [Compound 57, Propynoic Acid (cyclohexylcarbamoylthiophen-2-yl-methyl)-(4-isopropylphenyl)amide]	8.1	599
O=C(OCc1ccccc1)N1CCN(C(=O)C(c2cccs2)N(C(=O)CCl)c2cccc(C(F)(F)F)c2)CC1 (stereo not drawn) [Compound 198, 4-{2-[(2-chloro-acetyl)-(3-trifluoromethyl-phenyl)-amino]-2-thiophen-2-yl-acetyl}-piperazine-1-carboxylic acid benzyl ester]	55	1080
CC(C)c1cccc(N(C(=O)CCl)C(C(=O)N2CCN(C3CCCCC3)CC2)c2cccs2)c1 (stereo not drawn) [Compound 199]	23	1860
C#CC(=O)N(Cc1ccc2c(c1)OCO2)C(C(=O)NCc1ccccc1)c1ccccc1F (stereo not drawn) [Compound 181]	0.2	–
C#CC(=O)N(c1cccc(-c2ccccc2)c1)C(C(=O)NC1CCCCC1)c1cccs1 (stereo not drawn) [Compound 58, Propynoic acid biphenyl-3-yl-(cyclohexylcarbamoylthiophen-2-yl-methyl)amide]	2.4	580
CCN(CC)c1ccc(N(C(=O)CCl)C(C(=O)NC2CCCCC2)c2cccs2)cc1 (stereo not drawn) [Compound 127, 2-[(2-Chloroacetyl)-(4-diethylaminophenyl)amino]-N-cyclohexyl-2-thiophen-2-yl-acetamide]	7.5	77
C#CC(=O)N(c1cccc(C(F)(F)F)c1)C(C(=O)NC1CCCCC1)c1ccc2c(c1)OCO2 (stereo not drawn) [Compound 63, Propynoic Acid (benzo[1,3]dioxol-5-yl-cyclohexylcarbamoylmethyl)-(3-trifluoromethylphenyl)amide]	2	401
N#Cc1ccc(N(C(=O)CCl)C(C(=O)NC2CCCCC2)c2cccs2)cc1 (stereo not drawn) [Compound 122, 2-[(2-Chloroacetyl)-(4-cyanophenyl)amino]-N-cyclohexyl-2-thiophen-2-yl-acetamide]	4	300
C#CC(=O)N(c1ccccc1Cl)C(C(=O)NC1CCCCC1)c1cccs1 (stereo not drawn) [Compound 33, Propynoic Acid (2-chlorophenyl)(cyclohexylcarbamoylthiophen-2-yl-methyl)amide]	2.7	736
C#CC(=O)N(c1cccc(C(F)(F)F)c1)C(C(=O)NC1CCCCC1)c1ccc(C)s1 (stereo not drawn) [Compound 19, Propynoic Acid [cyclohexylcarbamoyl-(5-methylthiophen-2-yl)-methyl]-(3-trifluoromethylphenyl)amide]	1.4	340
N#Cc1cccc(N(C(=O)CCl)C(C(=O)NC2CCCCC2)c2cccs2)c1 (stereo not drawn) [Compound 121, 2-[(2-Chloroacetyl)-(3-cyanophenyl)amino]-N-cyclohexyl-2-thiophen-2-yl-acetamide]	70	252
C#CC(=O)N(c1cccc(C(F)(F)F)c1)C(C(=O)NC1CCCCC1)c1ccccc1F (stereo not drawn) [Compound 72, Propynoic Acid [cyclo hexylcarbamoyl-(2-fluorophenyl)methyl]-(3-trifluoromethylphenyl)amide]	3	619
C#CC(=O)N(c1cccc([N+](=O)[O-])c1)C(C(=O)NC1CCCCC1)c1cccs1 (stereo not drawn) [Compound 27, Propynoic Acid (cyclohexylcarbamoylthiophen-2-yl-methyl)-(3-nitrophenyl)amide]	0.8	110
C#CC(=O)N(CC(C)C)C(C(=O)NCc1ccccc1)c1cccs1 (stereo not drawn) [Compound 16, Propynoic Acid (benzylcarbamoylthiophen-2-yl-methyl)isobutylamide]	1	–
C#CC(=O)N(c1ccc(N(CC)CC)cc1)C(C(=O)NC1CCCCC1)c1cccs1 (stereo not drawn) [Compound 32, Propynoic Acid (cyclohexylcarbamoylthiophen-2-yl-methyl)-(4-diethylaminophenyl)amide]	2.9	1260
C#CC(=O)N(c1cccc(C(F)(F)F)c1)C(C(=O)NC1CCCCC1)c1ccc(Cl)c(Cl)c1 (stereo not drawn) [Compound 102, Propynoic Acid [cyclohexylcarbamoyl-(3,4-dichlorophenyl)methyl]-(3-trifluoromethylphenyl)amide]	1	428
C#CC(=O)N(c1ccc(C(C)(C)C)cc1)C(C(=O)NC1CCCCC1)c1cccs1 (stereo not drawn) [Compound 52, Propynoic Acid (4-tert-butylphenyl)(cyclohexylcarbamoylthiophen-2-yl-methyl)amide]	3.5	708
O=C(OCc1ccccc1)N1CCN(C(=O)C(c2cccs2)N(C(=O)CCl)c2ccc(Oc3ccccc3)cc2)CC1 (stereo not drawn) [Compound 206]	38	2500
C#CC(=O)N(c1cccc(C(F)(F)F)c1)C(C(=O)NC1CCCCC1)c1cccc(C)c1 (stereo not drawn) [Compound 94, Propynoic Acid (cyclohexylcarbamoyl-m-tolylmethyl)-(3-trifluoromethylphenyl)amide]	2	599
C#CC(=O)N(c1cccc(C(F)(F)F)c1)C(C(=O)NC1CCCCC1)c1ccccc1 (stereo not drawn) [Compound 66, Propynoic Acid (cyclohexylcarbamoyl phenylmethyl)-(3-trifluoromethylphenyl)amide]	1	–
C#CC(=O)N(c1cccc2ccccc12)C(C(=O)NC1CCCCC1)c1ccccc1 (stereo not drawn) [Compound 176]	1.9	–
C#CC(=O)N(C(C(=O)NCc1ccccc1)c1cccs1)[C@H](C)c1ccccc1 (stereo partly drawn) [Compound 9, Propynoic Acid (benzylcarbamoylthiophen-2-yl-methyl)-((R)-1-phenylethyl)amide]	30	–
C#CC(=O)N(C(C(=O)NCc1ccccc1)c1cccs1)[C@@H](C)c1ccccc1 (stereo partly drawn) [Compound 8, Propynoic Acid (benzylcarbamoylthiophen-2-yl-methyl)-((S)-1-phenylethyl)amide]	30	–
C#CC(=O)N(c1ccc(N2CCOCC2)cc1)C(C(=O)NC1CCCCC1)c1cccs1 (stereo not drawn) [Compound 48, Propynoic Acid (cyclohexylcarbamoylthiophen-2-yl-methyl)-(4-morpholin-4-yl-phenyl)amide]	1	–
C#CC(=O)N(c1cccc(C(F)(F)F)c1)C(C(=O)NC1CCCCC1)c1ccc(N(C)C)cc1 (stereo not drawn) [Compound 76, Propynoic Acid [cyclohexylcarbamoyl-(4-dimethylaminophenyl)methyl]-(3-trifluoromethylphenyl)amide]	1.5	–

Source: patent US8519188B2, “Compounds which can be used for the treatment of cancers” (Marc-Henry Pitty, priority 2008, dated 2013)
